From ChEMBL document CHEMBL5518169, “Discovery of a 1,6-naphthyridin-4-one-based AXL inhibitor with improved pharmacokinetics and enhanced in vivo antitumor efficacy” (Eur J Med Chem, 2024)
pIC50: −log10 of the molar value. Calls of active or inactive are those of the source. The rule behind the calls is not given here.

What was measured:
[1] = Half life in Sprague-Dawley rat at 3 mg/kg, po measured upto 24 hrs by LC-MS/MS analysis; type: ADME, organism-based; conditions: in vivo
[2] = AUC (0 to infinity) in Sprague-Dawley rat at 3 mg/kg, po measured upto 24 hrs by LC-MS/MS analysis; type: ADME, organism-based; conditions: in vivo
MKN-45 = experiment: cells; conditions: Homo sapiens, MKN-45, 72 h
Description: Antiproliferative activity against human MKN-45 cells assessed as inhibition of cell proliferation incubated for 72 hrs by CCK-8 assay

cells = conditions: Mus musculus, BaF3/TEL-AXL, 72 h
Description: Antiproliferative activity against mouse BaF3/TEL-AXL cells assessed as inhibition of cell proliferation incubated for 72 hrs by CCK-8 assay

[3] = Tmax in Sprague-Dawley rat at 3 mg/kg, po measured upto 24 hrs by LC-MS/MS analysis; type: ADME, organism-based; conditions: in vivo
[4] = Cmax in Sprague-Dawley rat at 3 mg/kg, po measured upto 24 hrs by LC-MS/MS analysis; type: ADME, organism-based; conditions: in vivo
[5] = MRT (0 to infinity) in Sprague-Dawley rat at 3 mg/kg, po measured upto 24 hrs by LC-MS/MS analysis; type: ADME, organism-based; conditions: in vivo
[6] = Metabolic stability in human liver microsomes assessed as half life preincubated with compound for 10 mins followed by NADPH addition and measured after 60 mins by LC-MS/MS analysis; type: ADME, Microsome; conditions: time 70 min
[7] = Metabolic stability in human liver microsomes assessed as parent compound remaining preincubated with compound for 10 mins followed by NADPH addition and measured after 60 mins by LC-MS/MS analysis; type: ADME, Microsome; conditions: time 70 min, read-out: Stability
[8] = target: T1, Tyrosine-protein kinase receptor UFO (Homo sapiens, UniProt P30530)
T1 sequence (P30530 whole entry): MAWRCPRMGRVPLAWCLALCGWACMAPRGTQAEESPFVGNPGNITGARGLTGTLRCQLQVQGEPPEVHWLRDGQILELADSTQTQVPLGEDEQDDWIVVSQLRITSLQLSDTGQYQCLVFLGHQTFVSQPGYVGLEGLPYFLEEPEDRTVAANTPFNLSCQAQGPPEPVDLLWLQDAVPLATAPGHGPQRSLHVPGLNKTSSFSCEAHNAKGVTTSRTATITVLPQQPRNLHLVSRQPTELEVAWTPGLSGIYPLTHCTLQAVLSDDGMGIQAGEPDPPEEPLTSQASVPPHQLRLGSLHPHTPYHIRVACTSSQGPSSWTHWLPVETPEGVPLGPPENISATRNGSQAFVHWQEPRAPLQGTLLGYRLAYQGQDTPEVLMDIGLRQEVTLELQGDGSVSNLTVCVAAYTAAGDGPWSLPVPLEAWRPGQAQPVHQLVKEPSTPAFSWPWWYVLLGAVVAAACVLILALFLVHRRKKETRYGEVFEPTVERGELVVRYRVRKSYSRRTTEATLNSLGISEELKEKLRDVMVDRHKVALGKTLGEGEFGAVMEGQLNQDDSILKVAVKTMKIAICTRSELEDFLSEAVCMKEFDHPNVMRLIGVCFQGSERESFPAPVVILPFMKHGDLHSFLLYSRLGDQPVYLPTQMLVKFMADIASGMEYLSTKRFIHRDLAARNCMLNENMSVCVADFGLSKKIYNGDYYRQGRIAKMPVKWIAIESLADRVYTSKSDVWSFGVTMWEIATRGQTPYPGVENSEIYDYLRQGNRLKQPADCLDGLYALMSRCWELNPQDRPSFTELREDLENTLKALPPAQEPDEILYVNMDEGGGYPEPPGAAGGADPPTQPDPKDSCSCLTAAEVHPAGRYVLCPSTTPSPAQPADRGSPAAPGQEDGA
Description: Inhibition of AXL (unknown origin) by ELISA analysis

[9] = Toxicity in mouse xenografted with mouse BaF3/TEL-AXL cells assessed as body weight loss at 50 mg/kg, po administered for 7 days; type: organism-based; conditions: in vivo, 168 h, time 7 day
[10] = Antitumor activity against mouse BaF3/TEL-AXL cells xenografted in mouse assessed as tumor growth inhibition at 50 mg/kg, po administered for 7 days; type: functional; conditions: 168 h, time 7 day, read-out: TGI
[11] = Toxicity in mouse xenografted with mouse BaF3/TEL-AXL cells assessed as body weight loss at 25 to 100 mg/kg, po administered for 7 days; type: organism-based; conditions: in vivo, 168 h, dose 25-100 mg/kg, time 7 day
[12] = Antitumor activity against mouse BaF3/TEL-AXL cells xenografted in mouse assessed as tumor growth inhibition at 25 mg/kg, po administered for 7 days; type: functional; conditions: 168 h, time 7 day, read-out: TGI
[13] = target: RAC-alpha serine/threonine-protein kinase (Mus musculus) (UniProt P31750); experiment: Inhibition of AKT phosphorylation in mouse BaF3/TEL-AXL cells incubated for 2 hrs by Western blot analysis; type: cell-based; conditions: dose 2-500 nM
BaF3/TEL-AXL = experiment: Antitumor activity against mouse BaF3/TEL-AXL cells xenografted in mouse assessed as tumor regression at 50 to 100 mg/kg, po administered for 7 days; type: functional, organism-based; conditions: dose 50-100 mg/kg, time 7.0 day
[14] = Antitumor activity against mouse BaF3/TEL-AXL cells xenografted in mouse assessed as tumor growth inhibition at 100 mg/kg, po administered for 7 days; type: functional; conditions: 168 h, time 7 day, read-out: TGI
[15] = target: T2, Tyrosine-protein kinase receptor UFO (Mus musculus) (UniProt Q00993); experiment: Inhibition of AXL phosphorylation in mouse BaF3/TEL-AXL cells incubated for 2 hrs by Western blot analysis; type: cell-based; conditions: dose 2-500 nM
T2 sequence (whole entry): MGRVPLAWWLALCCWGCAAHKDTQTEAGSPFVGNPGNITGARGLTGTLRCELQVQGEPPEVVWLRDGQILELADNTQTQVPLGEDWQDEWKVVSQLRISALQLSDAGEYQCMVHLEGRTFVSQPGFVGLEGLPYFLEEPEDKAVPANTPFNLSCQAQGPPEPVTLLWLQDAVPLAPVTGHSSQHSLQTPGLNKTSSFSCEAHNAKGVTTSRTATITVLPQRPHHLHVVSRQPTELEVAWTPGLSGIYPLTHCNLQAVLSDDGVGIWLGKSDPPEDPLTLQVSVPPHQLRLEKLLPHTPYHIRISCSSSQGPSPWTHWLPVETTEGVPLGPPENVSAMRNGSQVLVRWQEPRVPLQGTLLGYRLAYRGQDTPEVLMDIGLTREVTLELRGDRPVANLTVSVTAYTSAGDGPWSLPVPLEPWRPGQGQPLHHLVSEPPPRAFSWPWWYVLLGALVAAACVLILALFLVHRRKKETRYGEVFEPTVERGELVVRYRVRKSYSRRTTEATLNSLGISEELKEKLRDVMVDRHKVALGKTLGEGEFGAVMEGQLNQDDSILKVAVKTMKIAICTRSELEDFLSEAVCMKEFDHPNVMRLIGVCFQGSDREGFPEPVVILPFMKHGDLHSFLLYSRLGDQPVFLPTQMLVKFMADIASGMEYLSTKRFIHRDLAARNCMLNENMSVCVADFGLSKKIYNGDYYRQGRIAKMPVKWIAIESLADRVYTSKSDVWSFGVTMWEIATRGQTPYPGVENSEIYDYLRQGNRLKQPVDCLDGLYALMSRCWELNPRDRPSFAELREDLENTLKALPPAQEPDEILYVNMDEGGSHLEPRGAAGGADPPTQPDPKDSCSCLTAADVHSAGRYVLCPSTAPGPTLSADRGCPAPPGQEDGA

RAC-alpha serine/threonine-protein kinase (Mus musculus), sequence (P31750 whole entry): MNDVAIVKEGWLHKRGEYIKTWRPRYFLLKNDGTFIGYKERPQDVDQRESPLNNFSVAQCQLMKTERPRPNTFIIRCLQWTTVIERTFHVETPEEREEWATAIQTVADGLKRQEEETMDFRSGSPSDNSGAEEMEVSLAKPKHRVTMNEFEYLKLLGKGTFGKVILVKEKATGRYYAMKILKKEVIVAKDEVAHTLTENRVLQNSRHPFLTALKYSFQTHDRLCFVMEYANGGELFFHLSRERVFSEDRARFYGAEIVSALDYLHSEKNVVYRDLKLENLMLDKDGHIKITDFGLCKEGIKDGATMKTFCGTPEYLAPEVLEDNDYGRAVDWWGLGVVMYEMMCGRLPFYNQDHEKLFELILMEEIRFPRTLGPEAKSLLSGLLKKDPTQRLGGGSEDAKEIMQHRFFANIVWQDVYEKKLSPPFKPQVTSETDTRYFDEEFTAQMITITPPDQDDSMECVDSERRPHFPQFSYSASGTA

half-life [1] [h]	AUC(0-inf) [2] [ng·h/mL]	pIC50 (MKN-45)	pIC50 (cells)	Tmax [3] [h]	Cmax [4] [ng/mL]	MRT inf [5] [h]	half-life [6] [h]	remaining at 1 h [7] [%]	pIC50 [8]	inhibition [13]	inhibition [15]	Structure (SMILES)	Activity [9]	inhibition in vivo at 50 mg/kg [10] [%]	Activity [11]	inhibition in vivo at 25 mg/kg [12] [%]	Activity (BaF3/TEL-AXL)	inhibition in vivo at 100 mg/kg [14] [%]
3.82	1300	< 7.00	9.00	1.5	187	5.96	0.765	47	–	–	–	CC(C)n1cc(-c2ccc(F)cc2)c(=O)c2c(Nc3ccc(-c4cn(C)c5ncnc(N)c45)c(F)c3)nccc21	–	–	–	–	–	–
–	–	–	–	–	–	–	–	–	> 9.70	–	–	CC(C)n1cc(C(=O)Nc2cc(F)c(-c3c[nH]c4ncnc(N)c34)cc2F)c(=O)c(-c2ccc(F)cc2)c1	–	–	–	–	–	–
–	–	–	–	–	–	–	–	–	–	–	–	Nc1nc(Nc2ccc3c(c2)CC[C@@H](N2CCCC2)CC3)nn1-c1cc2c(nn1)-c1ccccc1CCC2 [BEMCENTINIB]	Non-Toxic	107	–	–	–	–
10.1	59800	< 7.00	> 9.00	2	2910	16.5	2.57	76.3	–	Dose-Dependent Effect	Dose-Dependent Effect	CC(C)n1cc(-c2ccc(F)cc2)c(=O)c2c(Nc3ccc(-c4cc(-c5cnn(C)c5)cnc4N)c(F)c3)nccc21	–	104	Non-Toxic	89.8	Active	105
